One series is described as follows: in vivo. The arrangement: species or system SD rats. Particulars: rat, sc, 1.35 mg/kg; for MRT: male, SD. How it is done:
The polypeptide derivative (1) and Tirzepatide were subcutaneously administered to male rats respectively in a single dose, blood samples of the male rats were then collected at different time points, and a concentration of the compound in plasma was determined by LC-MS/MS and related pharmacokinetic parameters were calculated, to investigate the pharmacokinetic characteristics of the compound in the rats.
16 male SD rats were randomly divided into two groups of eight rats each based on body weights. The rats were fasted for 12 h to 14 h, but water was allowed, one day before the administration. The rats were given food 4 h after the administration.
Sample collection: Before and after the administration, 0.1 mL of blood was sampled from the orbit of each rat under isoflurane anaesthesia, and then added in an EDTAK2 centrifuge tube in an ice bath to be centrifuged at 4° C. at 5000 rpm for 10 min. Then, plasma was collected.
Time points for blood collection of SC groups are 0, 5 min, 15 min, 30 min, 1 h, 2 h, 4 h, 6 h, 8 h, 24 h, 28 h, 32 h, and 48 h. All plasma samples were stored at −80° C. before analysis and testing.
The software Analyst 1.5.1 (Applied Biosystem) was used for data collection and system control. Automatic chromatographic peak integration was used for the sample. The sample concentration was regressed with a ratio of the sample peak area to the internal standard peak area as an index. Linear regression was used with a weighting factor of 1/X^2. Pharmacokinetic parameters were analyzed and processed with a non-compartmental model by using WinNonlin Professional v6.3 (Pharsight, USA). Cmax is a measured maximum plasma concentration. An area AUC(0→t) under a plasma concentration-time curve is obtained through ladder-shape calculation. Tmax is a time of a peak plasma concentration after the administration. The experimental data was expressed as “mean±standard deviation” (Mean±SD, n≥8) or “mean” (Mean, n=8).
Based on the plasma concentration data, the pharmacokinetic parameters after the administration calculated with the on-compartmental model by using WinNonlin V6.3 are shown in the following table.

On the set-up of series [1]: species or system humans. Particulars: human, in vivo. The text has this: According to disclosed data, an average clinical half-life of the control Tirzepatide in humans is 5.0 days.
For series [2] the following is noted: human, in vivo; cited from earlier work.

This is an account of results in patent US20240360193A1, “POLYPEPTIDE DERIVATIVE WITH DUAL GLP-1R AND GIPR TARGETING AGONISTIC EFFECT, AND PREPARATION METHOD AND USE THEREOF” (NANJING ZHIHE MEDICINE TECHNOLOGY CO., LTD., priority 2021, published 2024).

Each structure is given as a SMILES string. Like-named read-outs stand apart in the source and are kept apart here. Square brackets hold non-standard residues; d marks the D form. Peptide text beside a SMILES is read from it. * marks the point of attachment. X1 = O=C(O)CCCCCCCCCCCCCCCCCCC(=O)NC(CCC(=O)NCCOCCOCCNC(=O)COCCOCC(=O)*)C(=O)O; Aib = CC(C)(N)C(=O)O

In “in vivo”, `CC[C@H](C)[C@H](NC(=O)[C@H](CCCCN)NC(=O)[C@H](CC(=O)O)NC(=O)[C@H](CC(C)C)NC(=O)C(C)(C)NC(=O)[C@@H](NC(=O)[C@H](CO)NC(=O)[C@H](Cc1ccc(O)cc1)NC(=O)[C@H](CC(=O)O)NC(=O)[C@H](CO)NC(=O)[C@@H](NC(=O)[C@H](Cc1ccccc1)NC(=O)[C@@H](NC(=O)CNC(=O)[C@H](CC(=O)O)NC(=O)C(C)(C)NC(=O)[C@@H](N)Cc1ccc(O)cc1)[C@@H](C)O)[C@@H](C)O)[C@@H](C)CC)C(=O)N[C@@H](C)C(=O)N[C@@H](CCC(N)=O)C(=O)N[C@@H](CCCCNC(=O)COCCOCC(=O)NCCOCCOCCNC(=O)CCC(NC(=O)CCCCCCCCCCCCCCCCCCC(=O)O)C(=O)O)C(=O)N[C@@H](C)C(=O)N[C@@H](Cc1ccccc1)C(=O)N[C@H](C(=O)N[C@@H](CCC(N)=O)C(=O)N[C@@H](Cc1c[nH]c2ccccc12)C(=O)N[C@@H](CC(C)C)C(=O)N[C@@H](CC(C)C)C(=O)N[C@@H](C)C(=O)NCC(=O)NCC(=O)N1CCC[C@H]1C(=O)N[C@@H](CO)C(=O)N[C@@H](CO)C(=O)NCC(=O)N[C@@H](C)C(=O)N1CCC[C@H]1C(=O)N1CCC[C@H]1C(=O)N1CCC[C@H]1C(=O)N[C@@H](CO)C(N)=O)C(C)C` (some centres unmarked) [Polypeptide derivative (1)] (H-Y[Aib]DGTFTSDYSI[Aib]LDKIAQK(X1)AFVQWLLAGGPSSGAPPPS-NH2) returned an MRT of 33.6 h, an area under the curve AUC(0-inf) of 89700 ng·h/mL, an AUC(0-t) of 70400 ng·h/mL and an AUMC0-inf of 3022264 h · h · ng · mL^−1. For the same compound, in “in vivo”, the AUMC0-t was 1621331 h · h · ng · mL^−1, the Cmax was 2070 ng/mL, the Kel came to 0.0421 h⁻¹ and the Tmax was determined as 25.3 h. Further, in the series “in vivo”, the half-life is 16.7 h. In addition, the half-life in series [1] was 189 h.
In the series “in vivo”, `CC[C@H](C)[C@H](NC(=O)[C@H](CC(C)C)NC(=O)[C@H](Cc1c[nH]c2ccccc12)NC(=O)[C@H](CCC(N)=O)NC(=O)[C@@H](NC(=O)[C@H](Cc1ccccc1)NC(=O)[C@H](C)NC(=O)[C@H](CCCCNC(=O)COCCOCCNC(=O)COCCOCCNC(=O)CC[C@H](NC(=O)CCCCCCCCCCCCCCCCCCC(=O)O)C(=O)O)NC(=O)[C@H](CCC(N)=O)NC(=O)[C@H](C)NC(=O)[C@@H](NC(=O)[C@H](CCCCN)NC(=O)[C@H](CC(=O)O)NC(=O)[C@H](CC(C)C)NC(=O)C(C)(C)NC(=O)[C@@H](NC(=O)[C@H](CO)NC(=O)[C@H](Cc1ccc(O)cc1)NC(=O)[C@H](CC(=O)O)NC(=O)[C@H](CO)NC(=O)[C@@H](NC(=O)[C@H](Cc1ccccc1)NC(=O)[C@@H](NC(=O)CNC(=O)[C@H](CCC(=O)O)NC(=O)C(C)(C)NC(=O)[C@@H](N)Cc1ccc(O)cc1)[C@@H](C)O)[C@@H](C)O)[C@@H](C)CC)[C@@H](C)CC)C(C)C)C(=O)N[C@@H](C)C(=O)NCC(=O)NCC(=O)N1CCC[C@H]1C(=O)N[C@@H](CO)C(=O)N[C@@H](CO)C(=O)NCC(=O)N[C@@H](C)C(=O)N1CCC[C@H]1C(=O)N1CCC[C@H]1C(=O)N1CCC[C@H]1C(=O)N[C@@H](CO)C(N)=O` [Tirzepatide] gave an MRT of 25.6 h, an AUC(0-inf) of 52100 ng·h/mL, an exposure AUC(0-t) of 46700 ng·h/mL and an AUMC0-inf of 1352210 h · h · ng · mL^−1. For the same compound, in the series “in vivo”, the AUMC0-t worked out at 1003190 h · h · ng · mL^−1, the highest level (Cmax) was 1540 ng/mL, the Kel came to 0.0680 h⁻¹ and the Tmax turned out to be 20 h. In the series “in vivo”, the half-life is 10.6 h. Moreover, the “average clinical half-life in humans” value in series [2] was 120 h.

What is called MRT is a mean duration of stay, worked out from the concentration-time curve. A word on the AUC(0-inf): it is total exposure, with the tail of the curve extrapolated. By AUC(0-t) is commonly meant the area under the concentration-time curve up to a stated or last time point. Read a high AUC(0-t) as more exposure. The Cmax is the maximum level reached in the sampled fluid or tissue. By Tmax is commonly meant the time at which the peak concentration occurs. As a reminder, the half-life is the time in which the quantity being followed falls by half. Read a low half-life as fast loss.
